The subject of assay [1] is mice. The assay can be described thus: Reciprocal social interaction (RSI) test, social activity. Type of assay: in vivo. Particulars: for social activity of ABX adrenalectomized mice: under drug treatment, compared to ABX sham and vehicle sham mice.
The test system of assay [2] is mice. Briefly: Non-social activity (self-grooming, digging, rearing) in the RSI paradigm. Type of assay: in vivo. The source says: Minimal aggressive behaviors were observed. Each novel mouse was used for testing up to two times per day. Subject mice undergoing repeated testing throughout the experiment were confronted with a novel mouse each time. The following social investigation behaviors constituted “social activity” and were scored as such: anogenital sniffing, nose-nose sniffing, active approach, and push under/crawl. The following solitary behaviors during social interaction constituted “non-social activity” and were scored as such: self-grooming, digging, and rearing. All behaviors were analyzed using of ETHOM software (Shih, 2000).
Novel cage behavior is a widely-used test for measuring the non-social activity in a novel environment. The subject mouse was placed in an unused, sterilized cage. Non-social activity was video recorded for 5 minutes. The following solitary behaviors during social interaction constituted “non-social activity” and were scored as such: self-grooming, digging, and rearing. All behaviors were analyzed using of ETHOM software (Shih, 2000).

Another assay deals with corticosterone. Briefly: Serum corticosterone measurement (Corticosterone EIA Kit). Type of assay: in vivo, mice. Particulars: for serum corticosterone levels: GF mice, 50 mg/kg i.p., vs CMC vehicle, 50 mg/kg; for serum corticosterone: CNO i.p.
Another assay concerns c-Fos. Briefly: c-Fos staining of brain sections after social interaction. Type of assay: in vivo. Particulars: ABX hM4Di mice, CNO.

Entries after “also recorded” stand apart in the source; their conditions may differ. No end group written: not given here.

Description for c-Fos: All brain samples for c-Fos expression were collected one hour after the reciprocal social interaction test. Mice were anesthetized by intraperitoneal injection with a mixture of 100 mg/kg ketamine and 10 mg/kg xylazine. The mice were then perfused via the cardiovascular system with PBS followed by 4% paraformaldehyde (Electron Microscopy Sciences). Brains were removed and post-fixed in 4% paraformaldehyde 3-5 days at 4° C. The brains were kept in PBS with 0.02% sodium azide at 4° C. until sectioning.
The brains were embedded in 4% UltraPure low melting point agarose (ThermoFisher) and were coronally sectioned by vibratome (VT1000S; Leica) at a thickness of 50 μm, with the exception of the brain sections for FIGS. 1D-1F that were sectioned at a thickness of 100 μm. Brain sections of 50 μm were collected and stained every 0.15 mm. Brain sections of 100 μm were collected sequentially and stained entirely. The brain sections were stored as free-floating in PBS with 0.02% sodium azide at 4° C. until staining. […] The next day, sections were incubated with fluorescence-conjugated secondary antibody for 1.5-2 hours at room temperature. […] The fluorescence-conjugated secondary antibodies were donkey anti-goat (1:1000), donkey anti-rabbit (1:1000), and donkey anti-mouse (1:1000) (ThermoFisher Scientific). […]
Description for corticosterone: Whole blood was collected either by cardiac puncture or retro-orbital bleeding, and placed into Micro tube Z gel (41.1378.005; Sarstedt). Serum was separated by centrifuge at 10,000×g for five minutes, and stored at −80° C. until use. Corticosterone levels were detected by the Corticosterone EIA Kit (K014-H5; Arbor Assays) using the manufacturer's protocol. Due to the nature of the circadian rhythm for the corticosterone, the blood sample was collected during 1:00-5:00 pm on each day of experiment.

With “CRF: synthetic corticotropin-releasing factor (SEEPPISLDLTFHLLREVLEMARAEQLAQQAHSNRKLMEII; ends and bridges not checked; UniProt P06850 154-194, looked up)”, the “social activity toward a novel mouse” value in the assay on mice [1] (injection into the PVN of SPF mice (210 μM or 42 μM, 450 nL per hemisphere)) was “dramatically reduced”. For the same compound, the non-social activity entry with mice [2] (high levels of CRF into PVN of SPF mice) is recorded as “reversed these changes”; in the assay on mice [2] (low levels of CRF into PVN of SPF mice), “increased”.
For `CC(C)(C(=O)c1cccnc1)c1cccnc1` [metyrapone], the social activity result in the assay on mice [1] (GF mice, 50 mg/kg i.p., 40 min before test, vs CMC vehicle) is “significantly increased”. Also, the “social activity of ABX sham mice compared to vehicle sham mice” value in the assay on mice [1] (during drug treatment i.p. (RU-486 40 mg/kg, MET 50 mg/kg)) was “increased”. Moreover, in the assay with mice [1], the “social activity of ABX adrenalectomized mice” value is “elevated”. Besides, the serum corticosterone levels entry in the assay with corticosterone (after social interaction) is listed as “effectively reduced”; in the assay on corticosterone (after social interaction, listed as MET), “reduction”.
As for `CC#C[C@]1(O)CC[C@H]2[C@@H]3CCC4=CC(=O)CCC4=C3[C@@H](c3ccc(N(C)C)cc3)C[C@@]21C` [RU-486, mifepristone], in the assay with mice [1] (ABX control mice vs ABX Nr3cl^ΔDG or Nr3cl^ΔBNST mice, 40 mg/kg i.p.), the social activity result is “enhanced social activity only in ABX control mice”. Also, in the assay with mice [1], the “social activity of ABX adrenalectomized mice” value is on record as “elevated”.
For the compound `C[N+]1([O-])CCN(C2=Nc3cc(Cl)ccc3Nc3ccccc32)CC1` [CNO, clozapine N-oxide], the social behavior result is reported as “dramatically increased” in the assay with mice [1] (ABX Crh-ires-Cre mice with hM4Di in PVN, CNO i.p. 2-3 mg/kg); “no change” with mice [1] (ABX mice receiving control virus (mCherry) in PVN, CNO i.p.); “significantly decreased” in the assay with mice [1] (SPF hM3Dq mice (PVN), CNO i.p.). Moreover, the serum corticosterone entry is on record as “decreased; also recorded: reduction” with corticosterone (ABX hM4Di mice (PVN), after social interaction) and “increased” with corticosterone (SPF hM3Dq mice (PVN)). Besides, the “c-Fos expression in the BNST or DG” value with c-Fos is reported as “did not alter”. Further, the “c-Fos staining in the PVN” value in the assay on c-Fos is on record as “decreased”. Also, the non-social activity entry in the assay with mice [2] (SPF hM3Dq mice, chemogenetic activation of PVN CRH neurons) is given as “increased”.
Take `C[C@]12C[C@H](O)[C@H]3[C@@H](CCC4=CC(=O)CC[C@@]43C)[C@@H]1CC[C@@H]2C(=O)CO` [corticosterone]: the social behavior entry in the assay with mice [1] (acute injection, 10 mg/kg i.p. on two consecutive days, all groups (vehicle sham, ABX sham, ABX ADX)) is “impaired”. For the same compound, the social activity result with mice [1] (injection into the DG and BNST of SPF mice (corticosterone 65 μM, dexamethasone 20 mM)) is listed as “decreased”.

(Values after patent US20220273732A1, “PROBIOTIC THERAPIES FOR SOCIAL DEFICIT AND STRESS RESPONSE” (California Institute of Technology, priority 2021, published 2022).)
